A short description of data set [1]: Plasma concentration of Compound 1 at the 400 mg dose. The class given is in vivo. Conditions: 400 mg dose in human.
Data set [2] has as its system primary human macrophages. Description: Primary macrophage viability (Cell Titer Glo). The class given is cell-based. Conditions: Cell Titer Glo at the end of the experiment; any of the doses tested. How it is done: FIG. 12 illustrates the effect of Compound 1 on Primary Macrophage Viability. Primary human monocytes were differentiated into macrophages and treated with varying doses of DMSO or Compound 1. Cell viability was assessed by Cell Titer Glo 24 hours after drug treatment. Viability in drug treatment groups was normalized to the equivalent DMSO concentration. Data are plotted as the mean and standard deviation of 3 donors and representative of 2 independent experiments. Abbreviations: DMSO, dimethyl sulfoxide.
Peripheral blood mononuclear cells (PBMCs) were isolated from human blood using aseptic conditions. CD14+ monocytes were enriched from PBMC using Miltenyi Biotech kit (using CD14 microbeads). Fresh CD14+ monocytes were differentiated to macrophages using complete RPMI1640 medium with M-CSF recombinant human protein at the final concentration of 50 ng/mL. At Day 3-4, media containing M-CSF was added on monocytes/macrophages and incubated for 6-7 days in 5% CO2 incubator at 37° C. 10 mL 10 mM EDTA or Detachin was added to the culture dish containing macrophages, and let sit for 20-30 minutes, or until cells dissociate from the dish at room temperature. Macrophages were collected and washed in a 50 mL conical tube and centrifuged at 300-400×g for 4-5 minutes at room temperature. […]
In general terms: Cellular ATP, detected with luciferase, serves as a proxy for viable cell number.

Molecules are shown by their SMILES.

As for `C[C@@H]1CC[C@@H](Nc2nc(NC(C)(C)C)ncc2C(N)=O)C[C@H]1O` [Compound 1, 2-(tert-butylamino)-4-((1R,3R,4R)-3-hydroxy-4-methylcyclohexylamino)-pyrimidine-5-carboxamide], the “plasma concentration at Cavg” value in data set [1] was 4 µM. For the same compound, the Cmax – broadly, the maximum level reached in the sampled fluid or tissue – in data set [1] (plasma) was found to be 14 µM. Further, the “Macrophage cell viability relative to DMSO” value in data set [2] is listed as “No change in cell viability”.

For the origin of these results see patent US20240165112A1, “THERAPY FOR THE TREATMENT OF CANCER” (Bristol-Myers Squibb Company, priority 2022, published 2024).
